Tests used:
[1] = target: T1, hTERT (telomerase reverse transcriptase) (Homo sapiens, UniProt O14746); test: fluorescence polarization with His-hTRBD, BSA negative control; supported by TRAP inhibition of reconstituted GST-opTERT/hTERC and immunoprecipitated FLAG-hTERT telomerase (IC50 […]); type: binding
T1 construct: gene TERT

[2] = test system: Telo24 (human telomeric oligonucleotide, telomeric G-quadruplex) (DNA, G4) TTAGGGTTAGGGTTAGGGTTAGGG; test: microscale thermophoresis (MST); settings: K+ 100 mM KCl (plus potassium phosphate); 10 mM K2HPO4/KH2PO4 pH 7.0; 30 min; 1 μM DNA; SC 0.15625-320 μM; apparent

T1 sequence (O14746 325-550 limits assumed): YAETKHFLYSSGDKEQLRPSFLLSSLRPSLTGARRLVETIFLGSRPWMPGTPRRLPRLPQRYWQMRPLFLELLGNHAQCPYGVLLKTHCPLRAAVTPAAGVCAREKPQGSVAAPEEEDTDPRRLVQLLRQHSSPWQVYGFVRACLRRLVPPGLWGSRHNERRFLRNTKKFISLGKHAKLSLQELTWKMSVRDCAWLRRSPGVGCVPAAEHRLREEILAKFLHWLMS

C[n+]1cc2c3c(ccc2c2ccc4cc5c(cc4c21)OCO5)OCO3 [SC, Sanguinarine chloride]
EC50 [1]: 24.8 µM | EC50 [2]: 120 µM

From publication PMC9104802 (Cells, 2022)
